# Legend:
# [1] = system: elastase; assay: Anti-elastasic activity on human skin section
# Description: The elastin substrate was that which exists in human skin.
# That result was expected and acted to validate the test.
# [2] = target: pancreatic elastase (Sus scrofa, UniProt P00772); assay: Anti-elastasic activity, test in semi-solid medium (elastin in gelose); format: biochemical; conditions: 10 mM
# Protocol: Principle: Inhibition of the degradation of elastin contained in gelose by elastase
# The anti-elastase activity of acid sophorolipids was evaluated using a semi-quantitative technique. The enzymatic solution, associated or otherwise with the test compound or with the reference molecule, was deposited in hollows in gelose containing the substrate, elastin.
# The enzyme diffused into the gelose and digested the elastin.
# This phenomenon was shown as a lightening of the gelose in the digestion zone, which zone was measured.
# [3] = Anti-radical activity (EPR method); conditions: hydroxyl radical EPR signal
# Protocol: The anti-radical effect of crude and acid sophorolipids was evaluated with respect to a free radical derived from oxygen and which is particularly important in pathology, namely the hydroxyl radical. Electron paramagnetic resonance spectrometry (EPR) was used. A molecule which traps free radicals reduces the signal. EPR measurements were carried out using a Brucker ECS106 spectrometer at ambient temperature. The hydroxyl radical (OH^.) was produced by photolysis (UVB) of hydrogen peroxide in aqueous solution. Mannitol was used as a reference molecule (positive control).
# [4] = system: human fibroblasts; assay: Anti-radical effect on human fibroblasts (UVA); conditions: 200 μg/ml, in the absence of UVA
# pancreatic elastase, sequence (P00772 27-266): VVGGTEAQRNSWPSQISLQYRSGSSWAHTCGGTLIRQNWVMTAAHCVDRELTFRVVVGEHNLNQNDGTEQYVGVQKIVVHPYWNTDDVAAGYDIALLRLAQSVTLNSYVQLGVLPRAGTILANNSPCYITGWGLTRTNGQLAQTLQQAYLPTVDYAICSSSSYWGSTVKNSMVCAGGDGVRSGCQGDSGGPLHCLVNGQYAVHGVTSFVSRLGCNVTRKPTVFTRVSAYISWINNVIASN
compound,measurement,setting,value
"[Cl][Hg][Cl] [HgCl2, mercury chloride]",Degradation of elastin fibres,[1]; 0.125 % (w/v),None
same,inhibition of elastase activity,[1]; reference molecule,dose-dependent manner
same,enzymatic inhibition,[2],total
same,Diameter of digestion zone,[2]; 6 hours incubation,0 cm
same,Diameter of digestion zone,[2]; 21 hours incubation,0 cm
OC[C@@H](O)[C@@H](O)[C@H](O)[C@H](O)CO [Mannitol],trapping activity,[3]; 10 mM,98%
same,% anti-radical protection,[3]; 0.182% (w/v),98%
"CC(=O)Oc1c(C)c(C)c2c(c1C)CCC(C)(CCC[C@H](C)CCC[C@H](C)CCCC(C)C)O2 (some centres unmarked) [Acetate of vitamin E, acetate of vitamin E]",toxicity for cells,[4],not toxic
